# Experimental data reported in ChEMBL document CHEMBL1140620, “Development of integrase inhibitors for treatment of AIDS: an overview” (Eur J Med Chem, 2007).
# Molecular target: T1, Human immunodeficiency virus type 1 integrase (Human immunodeficiency virus 1, UniProt Q7ZJM1)
# Experiment: Inhibition of HIV1 integrase strand transfer activity
# T1 sequence (Q7ZJM1 whole entry): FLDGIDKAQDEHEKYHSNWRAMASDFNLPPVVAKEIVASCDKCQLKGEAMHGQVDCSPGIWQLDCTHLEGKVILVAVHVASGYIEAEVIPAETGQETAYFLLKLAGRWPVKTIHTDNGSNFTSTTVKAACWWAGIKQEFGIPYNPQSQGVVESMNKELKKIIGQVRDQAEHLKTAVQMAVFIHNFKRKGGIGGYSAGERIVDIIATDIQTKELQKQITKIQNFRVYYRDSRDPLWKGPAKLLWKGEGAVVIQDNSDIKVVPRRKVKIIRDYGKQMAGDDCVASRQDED
row,IC50 [nM],SMILES
1,3500,O=C(O)C(=O)CC(=O)c1cc(OCc2ccccc2)cc(OCc2ccccc2)c1
2,2600,CC(C)S(=O)(=O)Nc1ccc2nc(N)[nH]c2c1

# Continued, compound first:
row,SMILES,IC50 [nM]
1,COc1cccc(CN(Cc2cccc(OC)c2)c2ccc3nc(N)[nH]c3c2)c1,1800
2,N=C(N)c1ccc2cc(C#Cc3cccc(OCc4ccccc4)c3)ccc2c1,2100
3,N#C/C(=C(/O)C(=O)O)c1cn(-c2ccc(F)cc2)c2ccccc12,10000
4,O=C(c1cc(Cc2ccccc2)cc(CN2CCCS2(=O)=O)c1)c1ncc2cccnc2c1O,10000
5,CC(C)(C)C1CCC(C2=NCCc3ccc([C@H]4CC4c4ccc5cc(C(=N)N)ccc5c4)cc32)CC1 (stereo not given in full),3400

# Molecular target: T1, Human immunodeficiency virus type 1 integrase
# Experiment: Inhibition of HIV1 integrase-mediated 3'-end processing activity
row,IC50 [nM],SMILES
1,200,O=C(O)C(=O)CC(=O)c1cc(OCc2ccccc2)cc(OCc2ccccc2)c1

# Molecular target: T1, Human immunodeficiency virus type 1 integrase
# Experiment: Inhibition of HIV1 integrase
row,IC50 [nM],SMILES
1,< 10000,O=C(O)c1cc2cc(O)c(O)cc2[nH]1
2,2100,O=C1C(O)=C(O)C(O)=C2CC(O)=CC=CC12 (stereo not given)

# Tested on: Human immunodeficiency virus 1
# Experiment: Antiviral activity against human immunodeficiency virus 1 in cell culture
# Assay type: functional, organism-based
EC50 [nM],SMILES,IC95 [nM]
0.9,COc1cc2c(cc1Cc1cccc(Cl)c1F)c(=O)c(C(=O)O)cn2[C@H](CO)C(C)C,–
1500,O=C(/C=C/c1cccn1Cc1ccccc1)CC(=O)C(=O)O,–

# Second part, the compound before the results:
SMILES,EC50 [nM],IC95 [nM]
O=C(CC(=O)c1ccc(Cc2ccc(F)cc2)o1)c1nc[nH]n1,–,12000
O=C(NCc1ccc(F)cc1)c1nc(N2CCCCS2(=O)=O)c2cccnc2c1O,–,100
O=C(O)C(=O)CC(=O)c1cccn1Cc1ccc(F)cc1,–,100
